Test results taken from ChEMBL document CHEMBL3507680, “University of Dundee, Gates Library screen for HepG2 cell viability”.

Test: Human HepG2 cell viability assay in 384 well format
Assay type: toxicity, cell-based
Design: dose 125 nL, time 70.5 hour; cytotoxicity at 70.5 h: concentration not given beside the values
Conditions: HepG2 cells, read-out: Inhibition

Row | Compound | cytotoxicity at 70.5 h [%]
1 | CC(C)n1ccc2cc(C(=O)Nc3nc[nH]n3)ccc21 | -15.9
2 | Cc1nn(C)c(C)c1C1SCC(=O)Nc2c1c(O)nn2C(C)C (configuration not stated) | -28.8
3 | Cc1nc(C(=O)N2CCN(S(=O)(=O)N(C)C)CC2)c(-c2ccccc2)s1 | 13.5
4 | COCCn1ccc2c(C(=O)NC(C)C)cccc21 | -12.3
5 | O=C(CCc1nc2cc(Br)cnc2[nH]1)NCCCN1CCOCC1 | -17.4
6 | CC(C)C1SCC(=O)Nc2c1c(O)nn2C1CCCCC1 (configuration not stated) | -23.1
7 | CC(C)C1SCC(=O)Nc2c1cnn2-c1ccc(Cl)cc1F (configuration not stated) | 0.678
8 | CC(C)(C)c1csc(CCNC(=O)[C@H](c2ccccc2)n2cnnn2)n1 | -5.57
9 | Cc1nn(-c2ccc(C(=O)O)cc2)c2c1C(C(F)(F)F)SCC(=O)N2 (configuration not stated) | -5.65
10 | COc1ccc2c(c1)c(C(=O)Nc1nnn[nH]1)cn2C(C)C | 24.1
11 | CC(C)n1cc(C(=O)NC2CCS(=O)(=O)C2)c2ccccc2c1=O (configuration not stated) | -14.3
12 | O=C(NC1CCS(=O)(=O)C1)c1cn(C2CC2)c(=O)c2ccccc12 (configuration not stated) | -14.3
13 | CC(C)CNC(=O)c1cn(-c2ccccn2)c(=O)c2ccccc12 | -7.97
14 | Cc1nn(-c2ccc(C(=O)O)cc2)c2c1C(CC(C)C)SCC(=O)N2 (configuration not stated) | 0.483
15 | Cc1nc(C(=O)N2CCN(S(C)(=O)=O)CC2)c(-c2cccc(F)c2)s1 | 9.8
16 | Cc1c(C2SCC(=O)Nc3c2c(O)nn3C2CCCC2)cnn1C (configuration not stated) | -22.8
17 | Cc1nnsc1-c1nnc2sc(C3CCC3)nn12 | -10
18 | O=c1c(CN2CCCCCC2)coc(O)c1CN1CCCCCC1 | -4.84
19 | O=C1CCC(c2ccc(Cl)cc2)=NN1CN1CCSCC1 | -15.1
20 | O=C1CSC(C(F)(F)F)c2c(O)nn(C3CCCCC3)c2N1 (configuration not stated) | 15.2
21 | CC(C)CCn1cc(C(=O)NC2CCS(=O)(=O)C2)c2ccccc2c1=O (configuration not stated) | -12.4
22 | COC(=O)CCNC(=O)c1cc(-c2ccc(OC)cc2)nn1C | -3.5
23 | O=C(CNC(=O)c1cnccn1)Nc1ncc[nH]1 | -33.4

Row | Compound | cytotoxicity at 70.5 h [%]
24 | O=C(Cn1ccc2c(Cl)cccc21)Nc1nc[nH]n1 | -11.2
25 | Cc1cc(C)nc(NCCC(=O)NCCn2ccc3ccccc32)n1 | 5.63
26 | COCCn1ccc2cc(C(=O)N3CCN(S(C)(=O)=O)CC3)ccc21 | -5.85
27 | CN(C)S(=O)(=O)N1CCN(C(=O)c2cc(-c3ccc(Br)s3)n[nH]2)CC1 | -10.1
28 | O=C(CCc1nnc2ccccn2c1=O)NCc1ccc2c(c1)OCO2 | 25.1
29 | Cn1c(CN2CCOCC2)cc(=O)c(O)c1CN1CCCCC1 | -4.64
30 | CC(C)c1sc(Br)nc1C(=O)NCc1cccnc1 | 23.2
31 | Cc1ccc(C(=O)Nc2nnc(CC(C)C)s2)c(-n2cnnn2)c1C | 29.7
32 | CC(C)CNC(=O)C1CC(=O)N(c2n[nH]c3ccccc23)C1 (configuration not stated) | -5.36
33 | COCCNC(=O)C1CC(=O)N(c2n[nH]c3cccc(F)c23)C1 (configuration not stated) | -25
34 | CC(C)NC(=O)c1cccc(Oc2ccc3nncn3n2)c1 | 23.3
35 | CC(C)n1cc(C(=O)NC2CN3CCC2CC3)c2ccccc21 (configuration not stated) | -20.2
36 | COc1ccccc1C1SCC(=O)Nc2c1c(=O)[nH]n2C1CCOCC1 (configuration not stated) | -24.1
37 | Cc1cc(-c2nn3c(C4CCC4)nnc3s2)on1 | -7.88
38 | COCCn1cnc2ccc(NC(=O)c3c(C)noc3C)cc2c1=O | 30.3
39 | COc1ccc2c(ccn2CCC(=O)Nc2n[nH]c(C(C)C)n2)c1 | 24.3
40 | Cn1cnc2ccc(NC(=O)CCCn3cccn3)cc2c1=O | -13.5
41 | O=C1CSC(c2ccc(F)c(Cl)c2)c2c(n(C3CCOCC3)[nH]c2=O)N1 (configuration not stated) | 10.3
42 | CC(C)c1sc(Cl)nc1C(=O)N1CCN(Cc2ccccc2)CC1 | 27.3
43 | CCN1CCCC1CNC(=O)Cc1c(C)n[nH]c1-c1ccc(F)cc1 (configuration not stated) | 22.5
44 | O=C(Cn1cnc2ccsc2c1=O)NCCCc1nnc2ccccn12 | 26.5
45 | Cc1noc(C)c1C(=O)Nc1ccc2ncn(CC(C)C)c(=O)c2c1 | 50.5
46 | COc1cn(CC(=O)N2CCN(c3ccc(F)cc3)CC2)c(C)cc1=O | 27.9

Row | Compound | cytotoxicity at 70.5 h [%]
47 | COc1ccc(-c2n[nH]c(C)c2CC(=O)NCC2CCOCC2)cc1 | -10.5
48 | CC(C)n1ccc2c(NC(=O)c3n[nH]c4c3CCC4)cccc21 | 7.25
49 | CSc1ccc(C2SCC(=O)Nc3c2c(=O)[nH]n3C2CCOCC2)cc1 (configuration not stated) | -23.9
50 | O=C(CCCn1cnc2ccccc2c1=O)Nc1nc[nH]n1 | 22.9
51 | CC(=O)NC1CCCc2c1[nH]c1ccc(F)cc21 (configuration not stated) | 29.6
52 | CC(C)Cc1nc(NC(=O)c2cc(-c3cccnc3)n[nH]2)n[nH]1 | -5.07
53 | O=C(c1cc2c(Cl)cccc2[nH]1)N1CCN(CCc2ccccn2)CC1 | 24.6
54 | CC(=O)Nc1cccc2c1ccn2CC(=O)Nc1n[nH]c(CC(C)C)n1 | -5.98
55 | Cn1nc(-c2cccc(Cl)c2)c(Br)c1C(=O)O | -16.9
56 | Cn1/c(=N/C(=O)CSCC(=O)Nc2nccs2)sc2ccccc21 | 2.4
57 | CN1CCOCC12CCN(Cc1nccs1)CC2 | 3.99
58 | CC(C)NC(=O)c1nc2c(s1)CCCN2C(C)C | 7.18
59 | CCc1cnc(N2C[C@@H]3[C@@H](C(=O)NCC(C)C)CCS(=O)(=O)[C@@H]3C2)nc1 | -5.83
60 | CN1CCCc2sc(C(=O)NC3CC3)nc21 | -1.86
61 | Cn1nc(CN2CCCC2)c2c1CN(C(=O)c1ccncc1F)CC2 | -3.12
62 | CCc1cnc(N2C[C@@H]3[C@@H](C(=O)NC(C)C)CCS(=O)(=O)[C@@H]3C2)nc1 | 0.524
63 | COCCN(C)C(=O)c1nc2c(s1)CCCN2C(=O)C1CC1 | -3.1
64 | COCCO[C@@H]1CCN(c2cc(OC)ncn2)[C@H]1Cc1cnn(C)c1 | -4.31
65 | CCOCC1CC2(CCN(C(=O)C3CCSCC3)CC2)CO1 (configuration not stated) | 8.92
66 | COc1ccc(C(CNC(=O)c2c(C)noc2C)N(C)C)cc1 (configuration not stated) | 21.1
67 | CS(=O)(=O)N1CCN(C(=O)CCn2cccn2)CC1 | -6.72
68 | O=C(CCn1cccn1)N1CCSCC1 | -4.39
69 | Cc1ccc(-c2nc(C(=O)N3CCN(C(=O)N(C)C)CC3)cs2)c(C)c1 | -9.21

Row | Compound | cytotoxicity at 70.5 h [%]
70 | O=C(NCCc1ccccn1)Nc1cc(C(F)(F)F)c[nH]c1=O | -2.62
71 | O=C(NCCOc1ccccc1)Nc1cc(C(F)(F)F)c[nH]c1=O | -1.52
72 | CC(=O)N1CCN(C(=O)c2csc(-c3ccc(C)cc3C)n2)CC1 | 14.1
73 | Cc1nc(-c2ccc(Cl)s2)sc1C(=O)NC(C)(C)C(N)=O | -4.82
74 | CN1CCCN(C(=O)NCc2cc(Br)cs2)CC1 | -1.99
75 | Cc1noc(C)c1C(=O)NCC(c1cccc(F)c1)N(C)C (configuration not stated) | -4.95
76 | Cc1ccc(-c2nc(C(=O)N(C)C3CCN(C)CC3)cs2)c(C)c1 | -1.64
77 | CCOC(=O)c1sc2ccsc2c1CNS(C)(=O)=O | -3.52
78 | CC(C)c1nc(C2CCCN2Cc2nnc(C3CCC3)o2)no1 (configuration not stated) | 14.8
79 | C1CC(c2noc(C3CC3)n2)N(Cc2nnc(C3CC3)o2)C1 (configuration not stated) | -7.72
80 | CCc1nc(CN2CCOC(Cn3cncn3)C2)no1 (configuration not stated) | 16.6
81 | COc1c(CNCCNC(=O)c2cccs2)c(C)nn1C | -10.5
82 | CCCc1nc(C(C)(C)NC(=O)C2CC(=O)N(CC(C)C)C2)no1 (configuration not stated) | -4.84
83 | Cc1ncsc1C(=O)NCCNC(=O)Cc1cccc(F)c1 | -6.49
84 | Cc1ncc(C(=O)NCCNC(=O)Cc2cccc(F)c2)s1 | -6.72
85 | CCOc1cc(C)nc(N2CCN(C(=O)Cn3cc(C)cn3)CC2)n1 | -0.0989
86 | CC(NC(=O)NCCN1CCCC1)c1nncn1C (configuration not stated) | -8.29
87 | CCOc1cc(C)nc(N2CCN(C(=O)c3cnc[nH]3)CC2)n1 | -0.152
88 | NC(=O)C1CCCN(C(=O)c2ccn(-c3ccc(F)cc3)n2)C1 (configuration not stated) | -5.61
89 | CCOc1cc(C)nc(N2CCN(C(=O)c3cscn3)CC2)n1 | -4.61
90 | O=C(CCN1CCCC1=O)Nc1cnn(-c2ccccc2Cl)c1 | -8.1
91 | CC(C)Cc1nc(CN2CCOC(Cn3cncn3)C2)no1 (configuration not stated) | -8.48
92 | Cc1nccc(C(=O)N2CCCC(c3cc(C(F)(F)F)[nH]n3)C2)n1 (configuration not stated) | -2.27

Row | Compound | cytotoxicity at 70.5 h [%]
93 | Cc1noc(C)c1C(=O)N1CCCC(c2cc(C(F)(F)F)[nH]n2)C1 (configuration not stated) | 11
94 | Cc1ccc(C(=O)NS(=O)(=O)c2ccccc2Cl)c(=O)[nH]1 | 9.73
95 | CC(C)c1ccc(CCC(=O)N2CCOCC2c2ncon2)cc1 (configuration not stated) | -5.22
96 | Cc1nc(CN2CCCC(N(C)CCCc3ccccc3)C2)no1 (configuration not stated) | -5.01
97 | Cc1nc(CN2CCCC(N(C)CCOCC(F)(F)F)C2)no1 (configuration not stated) | -6.75
98 | Cc1cc(NC(=O)CN2CCCC2c2c(C)nn(C)c2Cl)on1 (configuration not stated) | -0.864
99 | N#Cc1ccc(F)c(CN2CCCCC2Cn2cccn2)c1 (configuration not stated) | 0.631
100 | COc1c(C2CCCN2CC(=O)Nc2cc(C)nn2C)c(C)nn1C (configuration not stated) | -3.3
101 | N#Cc1ccc(CN2CCCC2Cn2cccn2)c(F)c1 (configuration not stated) | 4.66
102 | Cc1nc(CN(C)CC(c2cccs2)N2CCOCC2)no1 (configuration not stated) | -1.7
103 | O=C(NC1CC1)N1CCN(c2cnccn2)CC1 | -1.17
104 | Cc1ncc(CN2CCOCC2)c2cc(C(=O)c3ccc(Br)cc3)oc12 | -13.8
105 | CC(C)c1nn(C)cc1CNC1CCOc2ccccc21 (configuration not stated) | -7.85
106 | CN1C(=O)CCCC12CCCN(Cc1nccs1)C2 (configuration not stated) | 9.31
107 | O=C([C@@H]1COC[C@H]2CN(c3ccncn3)C[C@H]21)N1CCCCO1 | -6.51
108 | Cn1nccc1-c1nc2c(cc1C(=O)O)CCN(C(=O)C1CC1)CC2 | -2.87
109 | O=C(c1ccccn1)N1CC[C@H]2[C@H]1CCN2S(=O)(=O)C1CC1 | 6.25
110 | C1CN(CC2CCOCC2)Cc2c(COCC3CC3)nnn2C1 | -7.76
111 | CCCS(=O)(=O)N1C[C@@H]2CN(Cc3ccco3)CCO[C@@H]2C1 | -2.23
112 | Cc1nc2c(cc1C(=O)O)CCN(CC1CC1)CC2 | -3.49
